In patent publication US20050014647A1, “Method and composition for determining resistance to an acetohydroxy-acid synthase inhibitor” (priority 2001, published 2005):
Where “and” joins values, the source holds several entries; their conditions need not be identical. Equal values may be shown once.

What was measured:
Type in all cases: cell-based
AHAS [1] = assay: in vivo AHAS assay, canola leaf discs with external supplement; conditions: canola, 14 hours; for % of No Alaninor Pyruvate: Alanine 0 %; for % of 0/0 / OD 530, Avg. of the treated discs / OD 530, Treated: replicates 1-3; for OD 530, Treated: single treated discs
Method: The procedure for the preparation of an in vivo AHAS assay is described below:
For the experiments, plants are grown from seed in soil in a greenhouse. Most experiments used wild type and imidazolinone resistant varieties of wheat, canola, rice, sunflower, and maize.
For the assay, a a microtiter plate is set up with 100 μl of one of the following solutions in each well: • a. Solution A: 10 mM phosphate buffer, pH 6; 10% Murashige and Skoog basal mineral salts (according to Murashige, T. and Skoog, F., Physiol. Plant., 15 473-497 (1962)); 500 μM CPCA (cyclopropyldicarboxylic acid); • b. Solution B: Solution A+alanine (or other supplements); • c. Solution C: Solution A+a pyruvate salt (or other supplements).
Plant material is excised from the newest emerging, rapidly growing leaf or stem from the test plant and placed in one of the microtiter plates. Usually, 5 mm leaf discs are cut from the newest emerging leaf. At least 2 discs per plant are cut. One disc is put in a well with Solution A and the other disc in a well with one of the other Solutions B or C (what solution are you using for background?).
After all wells in the microtiter plate contain plant material, the plate is covered with the microtiter plate cover and the plate with material is placed in a chamber with continuous fluorescent lights for 12 to 16 hours. The incubation is stopped by placing the plate in −20° C. freezer. After tissue and solutions freeze, the plate is thawed at room temperature and 25 μL of 5% sulfuric acid are added to each well. After incubation at 60° C. for 15 minutes, 175 μL of a freshly prepared mixture of α-naphthol (2.5%) and creatine (0.25%) in 2 N NaOH are added to each well and the plate is incubated at 60° C. for 15 minutes.
200 μL from each well are transferred to a new plate and OD530 on microtiter plate is readed by a spectrophotometer.

AHAS [2] = assay: AHAS assay of resistant and non-resistant crops, maize stem slices; design: dose or concentration left out as unconfirmed; conditions: imazamox and CPCA, average of four plants
Method: (§1) For the experiments, plants are grown from seed in soil in a greenhouse. The experiments used wild type and imidazolinone resistant varieties of maize and wheat.
(§2) For the assay, a microtiter plate is set up with […] of one of the following solutions in each well: • Solution A: 10 mM phosphate buffer (pH 4.4), 10% prepared Murashige and Skoog basal mineral salt stock solution, 0.5% (w/v) alanine, 50 mM pyruvate salt, and 0.5 mM CPCA (cyclopropyldicarboxylic acid); • Solution B: Solution A+0.0025 mM imazamox; • Solution C: Solution A without 0.5 mM CPCA
(§3) Plant material is excised from the newest emerging leaf for wheat or rapidly growing stem for maize from the test plant and placed in one of the microtiter plates. Usually, 3 to 5 mm slices are cut from the newest emerging leaf or stem. At least 3 same-length slices per plant are cut. One disc is put in a well with Solution A, one in a well with Solution B, and the last one in a well with Solution C.
(§4) After all wells in the microtiter plate contain plant material, the plate is covered with a plate cover and is placed under continuous fluorescent lights for 14 to 18 hours. The incubation is stopped by placing the plate in a −20° C. freezer. After tissue and solutions freeze, the plate is thawed at room temperature, and […] of 5% sulfuric acid is added to each well. After incubation at 60° C. for 15 minutes, […] of a freshly prepared mixture of α-naphthol (2.5%, w/v) and creatine (0.25%, w/v) in 2 N NaOH are added to each well and the plate is incubated at 60° C. for 15 minutes.
(§5) A 190 μl solution from each well is transferred to a new plate, and OD530 on microtiter plate is readed by a spectrophotometer.
(§6) AHAS activity of each plant is determined by the following formula: (OD530 of well B−OD530 of well C)/(OD530 of well A−OD530 of well C).

AHAS [3] = assay: AHAS assay of resistant and non-resistant crops, wheat leaf slices; design: dose or concentration left out as unconfirmed; conditions: imazamox and CPCA, average of four plants
Method: as §1, §2, §3, §4, §5, §6

CC(=O)C(=O)O [Pyruvate, Na-Pyruvate]
% of No Alaninor Pyruvate (AHAS [1]; Pyruvate 25 mM): 110% | % of No Alaninor Pyruvate (AHAS [1]; Pyruvate 50 mM): 139% | % of No NH4 or Pyruvate (AHAS [1]; NH4 0 mM, Pyruvate 6.25 mM): 109% | % of No NH4 or Pyruvate (AHAS [1]; NH4 0 mM, Pyruvate 12.5 mM): 128% | % of No NH4 or Pyruvate (AHAS [1]; NH4 0 mM, Pyruvate 25 mM): 138% | % of No NH4 or Pyruvate (AHAS [1]; NH4 0 mM, Pyruvate 50 mM): 175% | % of 0/0 (AHAS [1]; Pyruvate (100 mM)): 134% and 153% and 188% | OD 530, Avg. of the treated discs (AHAS [1]; Pyruvate (100 mM)): 1.510 and 1.730 and 1.950 | OD 530, Treated (AHAS [1]; Pyruvate (100 mM)): 1.526 and 1.848 and 1.972 and 1.469 and 1.846 and 2.235 and 1.725 and 1.796 and 2.100

COCc1cnc(C2=NC(C)(C(C)C)C(=O)N2)c(C(=O)O)c1 (stereo not shown) [imazamox]
Relative AHAS activity (%) (AHAS [2]; Maize variety Garst 8541 IT (Moderate-resistance)): 45.2% | Relative AHAS activity (%) (AHAS [2]; Maize variety Pioneer 3395 IR (High-resistance)): 67.3% | Relative AHAS activity (%) (AHAS [2]; Maize variety Pioneer 3514 (Non-resistance)): 5.8% | Relative AHAS activity (%) (AHAS [3]; Wheat variety CV 9804 (Moderate-resistance)): 22.4% | Relative AHAS activity (%) (AHAS [3]; Wheat variety Riband (Non-resistance)): 1.5% | Relative AHAS activity (%) (AHAS [3]; Wheat variety Teal 15A (High-resistance)): 57.7%

N.O [NH4OH, ammonium hydroxide]
% of No NH4 or Pyruvate (AHAS [1]; NH4 6.25 mM, Pyruvate 0 mM): 101% | % of No NH4 or Pyruvate (AHAS [1]; NH4 12.5 mM, Pyruvate 0 mM): 138% | % of No NH4 or Pyruvate (AHAS [1]; NH4 25 mM, Pyruvate 0 mM): 128% | % of No NH4 or Pyruvate (AHAS [1]; NH4 50 mM, Pyruvate 0 mM): 142% | % of 0/0 (AHAS [1]; NH4OH (50 mM)): 113% and 111% and 157% | OD 530, Avg. of the treated discs (AHAS [1]; NH4OH (50 mM)): 0.697 and 0.886 and 1.386 | OD 530, Treated (AHAS [1]; NH4OH (50 mM)): 0.604 and 0.880 and 1.386 and 0.522 and 0.866 and 1.177 and 1.003 and 0.953 and 1.845

NC(=O)C[C@H](N)C(=O)O [Asparagine, L-asparagine]
% of 0/0 (AHAS [1]; Asparagine (100 mM)): 107% and 141% and 91% | OD 530, Avg. of the treated discs (AHAS [1]; Asparagine (100 mM)): 1.384 and 0.796 and 1.206 | OD 530, Treated (AHAS [1]; Asparagine (100 mM)): 1.011 and 0.718 and 1.279 and 1.343 and 0.880 and 1.094 and 1.843 and 0.907 and 1.186
